Experimental data reported in PMC5825103 (PLoS ONE, 2018).
Like-named read-outs stand apart in the source and are kept apart here.

Tests used:
PR-LBD = biological target: T1, PR-LBD (Homo sapiens, UniProt P06401); experiment: filtration radioligand binding (Eurofins Cerep); conditions: competition binding; ± SD
T1 construct: PR-LBD (catalogue number 2341) were performed by Eurofins Cerep SA, France; purchased Eurofins Cerep SA, France 2341
T1 sequence (P06401 679-913 limits assumed): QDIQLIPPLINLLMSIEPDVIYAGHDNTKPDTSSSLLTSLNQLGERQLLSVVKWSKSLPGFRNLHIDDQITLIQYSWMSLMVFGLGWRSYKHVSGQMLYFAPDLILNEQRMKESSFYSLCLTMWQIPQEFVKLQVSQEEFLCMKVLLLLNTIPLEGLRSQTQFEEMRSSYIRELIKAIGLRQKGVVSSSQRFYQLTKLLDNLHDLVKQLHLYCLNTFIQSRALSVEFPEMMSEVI
Experimental: Filtration based radioligand binding assays for human GR-LBD (catalogue number 0469), AR-LBD (catalogue number 0933) and PR-LBD (catalogue number 2341) were performed by Eurofins Cerep SA, France.

rat MR LBD = biological target: T2, rat MR LBD (Rattus norvegicus, UniProt P22199); experiment: GAL4-MR LBD reporter gene assay, U2-OS cells; assay type: cell-based
T2 construct: expressed in transfected cells; host or cells: U2-OS
T2 sequence (P22199 723-961 limits assumed): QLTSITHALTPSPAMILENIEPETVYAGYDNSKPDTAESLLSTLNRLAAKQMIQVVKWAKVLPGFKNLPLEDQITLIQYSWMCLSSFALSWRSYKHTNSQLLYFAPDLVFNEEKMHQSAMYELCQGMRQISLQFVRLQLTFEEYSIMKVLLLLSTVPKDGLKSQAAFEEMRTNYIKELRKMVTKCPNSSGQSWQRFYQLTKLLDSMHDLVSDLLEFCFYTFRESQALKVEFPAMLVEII
Source text: To assess ligand activities on full length MR, U2-OS cells (ATCC HTB96™) were transiently transfected via electroporation with hMR/pCDNA 3.1 or hMR(M777V)/pCDNA3.1 expression plasmids and a MMTV-luc2P/pGL4.36 reporter plasmid. To determine species specific ligand activities, a reporter plasmid where luciferase is driven by the yeast GAL4 response element was cotransfected with plasmids expressing a fusion protein between the GAL4 DNA binding domain and the human, rat or mouse MR LBD. […] Cells were lysed with SteadyLite (Perkin Elmer) according to manufacturers protocol and luminescence was measured using an Envision plate reader.

[1] = tested on: male Sprague Dawley rats on low salt diet; experiment: acute urinary electrolyte excretion in salt deprived rats; assay type: in vivo, rat; conditions: 100 mg kg^-1 AZD9977 co-administered with 10 or 30 mg kg^-1 eplerenone
Experimental: Experimental procedures to assess electrolytes effects in vivo were approved by the local ethics review committee on animal experiments in the Gothenburg region (EA 141-2010). […] Animals had environmental enrichment such as nest pads, nesting box, running ladder and aspen chew sticks. Rats were fed a low salt diet ([…] with 0.02% NaCl, […], Sweden) for 72h prior to dosing to increase endogenous aldosterone levels. […] Immediately following dosing, rats were placed in metabolic cages with free access to drinking water but no food. Urine was collected for 8 hours to determine total electrolyte (Na^+ and K^+) content as well as total urinary volume. Urine was collected at room temperature with no additives. Urine was analyzed for Na^+ and K^+ content on a Radiometer ABL 700 blood gas analyzer (Radiometer, Copenhagen, Denmark).

MR = tested on: MR; set-up: method as in PMID 24464876; conditions: eplerenone vs spironolactone; cited from earlier work
[2] = plasma exposure in rat urine electrolyte excretion model (satellite animals, population PK); conditions: average (90% CI)
Experimental: In the rat urine electrolyte excretion model, satellite pharmacokinetic animals were used with serial plasma sampling to assess drug exposure levels during the study duration. […] Exposure data were analysed using nonlinear mixed effects pharmacokinetic modelling. Based on the final population pharmacokinetic model, the eight hour study window was simulated and mean exposure was retrieved from these simulations. The 90% confidence intervals of the mean exposure levels were obtained by Monte Carlo simulations based on the uncertainty, using the parameter covariance matrix, of pharmacokinetic parameter estimates. 1000 simulations were performed and based on these simulations the 5th, and 95th percentiles were retrieved.

CNC(=O)C[C@H]1COc2cc(F)ccc2N1C(=O)c1ccc2c(c1)NC(=O)CO2 [AZD9977, (S)-2-(7-Fluoro-4-(3-oxo-3,4-dihydro-2H-benzo[b][1, 4]oxazine-6-carbonyl)-3,4-dihydro-2H-benzo[b][1, 4]oxazin-3-yl)-N-methylacetamide]
Ki (PR-LBD): 25100 nM
IC50 (rat MR LBD; read-out: IC50): 80 nM
Na^+ excretion caused by eplerenone [1]: attenuated the Na^+ excretion caused by eplerenone

COC(=O)[C@@H]1CC2=CC(=O)CC[C@]2(C)[C@@]23O[C@@H]2C[C@@]2(C)[C@@H](CC[C@@]24CCC(=O)O4)[C@H]13 [eplerenone]
IC50 (rat MR LBD; ± SD, read-out: pIC50 (converted)): 39.8 nM
reduced receptor potency in vitro compared to spironolactone (MR): 10–20 fold
Cav,in interval ([2]; oral 3 mg kg^-1, 8 h interval): 0.41 (0.35;0.47) μM
Cav,in interval ([2]; oral 10 mg kg^-1, 8 h interval): 1.4 (1.2;1.6) μM
Cav,in interval ([2]; oral 30 mg kg^-1, 8 h interval): 4.1 (3.6;4.7) μM
Cav,in interval ([2]; oral 100 mg kg^-1, 8 h interval): 13.6 (11.8;15.6) μM
